# Measured values: patent publication US20090047221A1 (NIPRI LIMITED, priority 2004, published 2009)
# Where two headings read alike, the source gives them in different places.
# Legend:
# Assay in all cases: MTT assay (anti-proliferative activity)
# Assay type in all cases: cell-based
# [1] = tested on: MalMe3M; details: 96 h continual exposure, read-out: IC 50 MalMe3M
# Protocol: (§1) The MTT assay was used initially to determine the anti-proliferative activity of the test compounds. In the MTT assay a yellow thiazolyl blue tetrazolium bromide salt (MTT) is reduced, in metabolically active cells, to form insoluble purple formazan crystals which are solubilised by the addition of dimethyl sulphoxide (DMSO).
# (§2) Wells containing medium only were used as blanks. Following the attachment period, cells were treated with appropriate drug concentrations (20 μl added per well). 40 mg/ml stock drug solutions, in DMSO, were stored at −20° C. and on the day of drug treatment working solutions of 4 mg/ml were prepared in medium which was further diluted to achieve final drug dilution volumes of 20 μl. Initial screening was determined over a concentration range of 1-200 μg/ml. […] Cells were exposed to drug for 96 h continual exposure (37° C., 5% CO2). Following the 96 h incubation, 50 μl MTT solution (1 g MTT/500 ml PBS) was added per well and the plates were further incubated for 4 h (37° C., 5% CO2). After incubation the MTT and medium was removed from the wells and 100 μl DMSO added per well. Plates were agitated on an orbital mixer platform (Stuart Scientific) for 10 minutes. Absorbance was measured at 570 nm on a Biotrak II (Amersham Bioscience) plate reader. IC50 values were calculated comparing control and drug treated cells.
# [2] = tested on: MDA-MB-468; details: read-out: IC 50 MDA-MB-468
# Protocol: as §1, §2
# [3] = tested on: SkMel28; details: read-out: IC 50 SkMel28
# Protocol: as §1, §2
# [4] = tested on: MCF-7; details: read-out: IC 50 MCF-7
# Protocol: as §1, §2
# [5] = Homo sapiens, MCF7, 96 h continual exposure
# [6] = Homo sapiens, MDA-MB-468, 96 h continual exposure
# [7] = Homo sapiens, SK-MEL-28, 96 h continual exposure
IC50 ([2]; 96 h continual exposure) [µM],IC50 ([4]; 96 h continual exposure) [µM],"IC50 [4, 5] [µM]","IC50 [2, 6] [µM]",SMILES,IC50 [1] [µM],IC50 ([3]; 96 h continual exposure) [µM],"IC50 ([1]; Homo sapiens, Malme-3M) [µM]","IC50 [3, 7] [µM]"
113,,,,"CC(C)CC(NC(=O)c1ccc2c(c1O)C(=O)OC(C)C2)C(=O)O (mixture of isomers) [ALM-56, Leucine Amide]",486,> 596,,
118,197,,,CC1Cc2ccc(C(=O)NC(C(=O)O)c3ccccc3)c(O)c2C(=O)O1 (mixture of isomers) [ALM-64],> 562,> 562,,
> 570,> 570,,,CC1Cc2ccc(C(=O)NC(CCCCN)C(=O)O)c(O)c2C(=O)O1 (mixture of isomers) [ALM-67],> 570,> 570,,
,,630,306,"COc1cc2c(c(O)c1OC)C(=O)OC(C)C2 (racemic) [ALM-1, Racemic (±)—Kigelin]",,,714,718
90.2,60.2,,,"CC/C=C\C/C=C\C/C=C\CCCCCCCC(=O)Oc1c(OC)c(OC)cc2c1C(=O)OC(C)C2 (racemic) [ALM-4, Racemic Kigelin α-Linolenyl Ester]",321,> 401,,
50.1,20,,,"CCCCC/C=C\C/C=C\C/C=C\CCCCC(=O)Oc1c(OC)c(OC)cc2c1C(=O)OC(C)C2 (racemic) [ALM-5, Racemic Kigelin γ-Linolenyl Ester]",150,> 401,,
,,432,486,"COc1cc2c(c(OC)c1)C(=O)OC(C)C2 (racemic) [ALM-7, 6,8-Dimethoxy-3-methyl-isochroman-1-one]",,,626,> 900
,,> 1040,583,"COc1cccc2c1C(=O)OC(C)C2 (racemic) [ALM-12, Racemic Mellein Methyl Ether]",,,> 1040,> 1040
345,613,,,"CC(=O)Oc1cccc2c1C(=O)OC(C)C2 (racemic) [ALM-15, Acetyl rac-Mellein]",613,622,,
240,296,,,"CCOC(=O)Oc1cccc2c1C(=O)OC(C)C2 (racemic) [ALM-16, Racemic Mellein Ethyl Carbonate]",456,360,,
> 453,> 453,,,"CCCCC/C=C\C/C=C\CCCCCCCC(=O)Oc1cccc2c1C(=O)OC(C)C2 (racemic) [ALM-18, Racemic Mellein Linoleyl Ester]",> 453,> 453,,
> 455,342,,,"CCCCC/C=C\C/C=C\C/C=C\CCCCC(=O)Oc1cccc2c1C(=O)OC(C)C2 (racemic) [ALM-20, Racemic Mellein γ-Linolenyl Ester]",> 455,> 455,,
,,329,263,"CC1Cc2c(I)ccc(O)c2C(=O)O1 (racemic) [ALM-26, Racemic Para-Iodomellein]",,,168,
99.3,,,,"CC1Cc2ccc(C(=O)OCc3ccccc3)c(O)c2C(=O)O1 (racemic) [ALM-36, Benzyl Ester]",106,176,,

SMILES,IC50 ([2]; 96 h continual exposure) [µM],IC50 ([4]; 96 h continual exposure) [µM],"IC50 [4, 5] [µM]","IC50 [2, 6] [µM]",IC50 [1] [µM],IC50 ([3]; 96 h continual exposure) [µM],"IC50 ([1]; Homo sapiens, Malme-3M) [µM]","IC50 [3, 7] [µM]"
CC1Cc2ccc(C(=O)NCCC(=O)O)c(O)c2C(=O)O1 (racemic),222,136,,,290,> 681,,
"CCCCC/C=C\C/C=C\CCCCCCCC(=O)Oc1c(OC)c(OC)cc2c1C(=O)OC(C)C2 (racemic) [ALM-3, Racemic Kigelin Linoleyl Ester]",99.9,150,,,> 399,> 399,,
"COc1cc(O)c2c(c1)CC(C)OC2=O (racemic) [ALM-8, 8-Hydroxy-6-methoxy-3-methylisochroman-1-one]",,,428,428,,,663,725
"CC/C=C\C/C=C\C/C=C\CCCCCCCC(=O)Oc1cccc2c1C(=O)OC(C)C2 (racemic) [ALM-19, Racemic Mellein α-Linolenyl Ester]",> 455,> 455,,,> 455,> 455,,
